Assay [1] is described as follows: Inhibition of HSV type-2 DNA polymerase after 30 mins by liquid scintillation counting analysis in presence of dATP, dCTP, dGTP and [3H]-TTP. More on the design: species or system Human alphaherpesvirus 2.
Assay [2] concerns Human alphaherpesvirus 2. The assay is described as follows: Antiviral activity against Human herpesvirus 2 infected in CF mouse assessed as suppression of virus-induced dermatitis at 800 mg/kg/day, po administered for 6 days measured after day 17. It counts as functional, organism-based.
The test system of assay [3] is Human alphaherpesvirus 2. The assay is described as follows: Antiviral activity against Human herpesvirus 2 infected in CF mouse assessed as suppression of virus-induced dermatitis administered topically as 2% aqueous solution twice daily for 6 days measured after day 17. It counts as functional, organism-based.
The test system of assay [4] is Human alphaherpesvirus 2. The assay is described as follows: Antiviral activity against Human herpesvirus 2 infected in CF mouse assessed as suppression of virus-induced dermatitis at 100 to 1000 mg/kg/day, po administered for 6 days measured after day 17. Format: functional, organism-based.

Activity calls are given as the source filed them. No cut-off for these calls is given here.

As for `CCCOP(=O)(O)CC(=O)O`, the I50 in assay [1] was found to be 200 µg/mL. As to `O=C(O)CP(=O)(O)c1ccccc1`, the outcome in the assay with Human alphaherpesvirus 2 [2] and in the assay with Human alphaherpesvirus 2 [3] was inactive. The I50 in assay [1] was 200 µg/mL. Regarding `COc1ccc(P(=O)(O)CC(=O)O)cc1`, the result in the assay on Human alphaherpesvirus 2 [2] and with Human alphaherpesvirus 2 [3] was inactive. Also, in assay [1], the I50 came out at 150 µg/mL.

Take `CCCOC(=O)CP(=O)(O)O`: in assay [1], the I50 came out at 0.16 µg/mL. Besides, the outcome in the assay on Human alphaherpesvirus 2 [3] and in the assay on Human alphaherpesvirus 2 [4] was Active. For `CC(C)(C)OC(=O)CP(=O)(O)O`, the I50 in assay [1] was 3.9 µg/mL.

For the compound `COP(=O)(O)CC(=O)O`, the I50 in assay [1] is 19.9 µg/mL. On the same count and under the same terms, to `O=C(O)CP(=O)([O-])[O-].[Na+].[Na+]` [DISODIUM CARBOXYMETHYLPHOSPHONATE] belongs 0.22 µg/mL; to `CCCCCCCCOC(=O)CP(=O)(O)O`, 0.26 µg/mL. Take `O=C(CP(=O)(O)O)OCc1ccccc1`: the I50 in assay [1] worked out at 40 µg/mL. In the case of `CP(=O)(O)CC(=O)O`, the I50 in assay [1] was 145 µg/mL. Further, the outcome in the assay on Human alphaherpesvirus 2 [3] was inactive. Consider `CCCCCCOP(=O)(O)CC(=O)O`, for which the result in the assay on Human alphaherpesvirus 2 [2] and in the assay with Human alphaherpesvirus 2 [3] was Active.

Consider `O=C(CP(=O)(O)O)OC1CCCCC1`, for which, in assay [1], the I50 stood at 49 µg/mL.

The values above are taken from ChEMBL document CHEMBL3244259, “Synthesis and anti-herpes simplex activity of analogues of phosphonoacetic acid” (J Med Chem, 1977).
